The test deals with Bruton tyrosine kinase (BTK) (Homo sapiens (Human), UniProt Q06187). In words: BTK Enzyme Activity Testing (in vitro kinase assay, ADP-Glo kinase assay kit). As to conditions: BTK kinase (full length with His-Tag), 50 uM ATP in substrate solution, 30 min pre-incubation, 60 min reaction, 10 concentration points. It counts as biochemical. The protocol:
An in vitro kinase assay is used to evaluate the effect of the inventive compounds on Bruton tyrosine kinase (BTK) activity.
The experimental method is generally described as follows:
In vitro activity of BTK is measured by detecting ADP produced in a kinase reaction with an ADP-Glo™ kinase assay kit from Promega Company. In the kinase assay, the kinase consumes ATP to phosphorylate the substrate, while producing ADP. ADP-Glo reagent then terminates the kinase reaction and completely consumes the remaining ATP. Finally, a kinase detection reagent is added to convert generated ADP into new ATP. Luciferase in the detection reagent is capable of catalyzing fluorescein with the participation of ATP and O2 to produce oxidized fluorescein, AMP, and generate light quantum, thereby converting a chemical signal into an optical signal (Luminecence). The intensity of optical signal is positively correlated with the production of ADP in the kinase reaction, so that the activity of kinase BTK can be thereby quantitatively determined.
All assays are conducted at a constant temperature of 23° C., using a Corning 3674 Type white 384-well plate; the BTK kinase (full length with His-Tag) is expressed and purified internally by the company; the substrate of kinase is polypeptide (4:1 Glu,Tyr) (from SignalChem) and ATP (from Sigma); and a microplate reader EnVision (Perkin Elmer) is used for reading an optical signal. The assay buffer includes 40 mM Tris-HCl (pH 7.5), 10 mM MgCl2 (Sigma), 2 mM MnCl2 (Sigma), 0.05 mM DTT (Sigma), and 0.01% BSA (Sigma); the BTK kinase is diluted with the assay buffer to a concentration of 1.6 ng/uL as a kinase reaction solution; and the substrate reaction solution comprises 0.2 mg/mL polypeptide substrate and 50 uM ATP.
Compound's IC50 is calculated from 10 concentration points by the following method. The compound is dissolved and diluted in 100% DMSO to a concentration of 1 mM, followed by a serial 3× dilution with DMSO to a minimum concentration of 0.05 uM. Each concentration stock is further diluted 40× with the assay buffer. To a 384-well assay plate are added 1 uL of a series of compound solutions and 2 uL of the kinase reaction solution, followed by mixing homogeneously, and incubating in the dark at room temperature. After in the dark for 30 min, 2 uL of the substrate reaction solution is added to allowed the total reaction volume to 5 uL. The reaction mixture is incubated in the dark at room temperature in the dark for another 60 min. An equal volume of 5 uL ADP-Glo™ reagent is then added to terminate the reaction. The resulting mixture is homogeneously mixed, and stands at room temperature for 40 min. Finally, 10 uL of the kinase detection reagent is added, stands at room temperature for 30 min, and then a value is read on Envision.
Percent inhibition is calculated based on the following equation: Inhibition %=[1−(RLUcompound−RLUmin)/(RLUmax−RLUmin)]×100 wherein RLUcompound is the luminescence reading at a given concentration of compound, RLUmin is the luminescence reading in the absence of kinase, and RLUmax is the luminescence reading in the absence of compound. IC50 of the compound is calculated by using a XLfit program in Excel.
Sequence of Bruton tyrosine kinase (BTK) (Q06187 whole entry): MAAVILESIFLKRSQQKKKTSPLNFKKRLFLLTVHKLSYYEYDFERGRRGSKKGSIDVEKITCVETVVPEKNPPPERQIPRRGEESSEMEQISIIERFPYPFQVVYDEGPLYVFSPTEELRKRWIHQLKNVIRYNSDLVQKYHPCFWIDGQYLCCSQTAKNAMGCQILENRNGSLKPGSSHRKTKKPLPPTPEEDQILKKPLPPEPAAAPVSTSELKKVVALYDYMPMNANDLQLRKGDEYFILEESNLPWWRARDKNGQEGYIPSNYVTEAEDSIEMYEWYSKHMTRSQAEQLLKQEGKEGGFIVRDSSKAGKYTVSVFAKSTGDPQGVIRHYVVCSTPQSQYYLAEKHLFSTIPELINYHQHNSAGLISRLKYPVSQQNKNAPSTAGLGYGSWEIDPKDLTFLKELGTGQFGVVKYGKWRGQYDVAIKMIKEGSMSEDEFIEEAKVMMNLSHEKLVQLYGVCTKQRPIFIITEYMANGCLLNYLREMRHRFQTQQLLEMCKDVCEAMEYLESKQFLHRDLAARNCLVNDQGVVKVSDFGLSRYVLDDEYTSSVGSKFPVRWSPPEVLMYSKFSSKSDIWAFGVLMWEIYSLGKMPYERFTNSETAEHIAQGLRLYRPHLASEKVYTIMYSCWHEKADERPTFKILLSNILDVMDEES
`C=CC(=O)N1CCCC(c2cc3cn[nH]c3c(-c3ccc(CN4CCOCC4)cc3)n2)C1` (centres unmarked) [Compound 1, 1-(3-(7-(4-(morpholinomethyl)phenyl)-1H-pyrazolo[3,4-c]pyridin-5-yl)piperidin-1-yl)prop-2-en-1-one] gave a half-inhibitory concentration (IC50) of 100 to 500 nM.

`C=CC(=O)N1CCCC(c2cc3cn[nH]c3c(-c3ccc(OC4COC4)cc3)n2)C1` (centres unmarked) [Compound 2, 1-(3-(7-(4-(oxetan-3-oxy)phenyl)-1H-pyrazolo[3,4-c]pyridin-5-yl)piperidin-1-yl)prop-2-en-1-one] came in with an IC50 of 100 to 500 nM.

`C=CC(=O)N1CCCC(c2cc3cn[nH]c3c(-c3ccc(Oc4ccccc4)cc3)n2)C1` (centres unmarked) [Compound 3, 1-(3-(7-(4-phenoxyphenyl)-1H-pyrazolo[3,4-c]pyridin-5-yl)piperidin-1-yl)prop-2-en-1-one]: the 50% inhibitory concentration (IC50) is less than 100 nM.

On to `CN(C)C/C=C/C(=O)N1CCCC(c2cc3cn[nH]c3c(-c3ccc(Oc4ccccc4)cc3)n2)C1` (centres unmarked) [Compound 4, (E)-4-(dimethylamino)-1-(3-(7-(4-phenoxyphenyl)-1H-pyrazolo[3,4-c]pyridin-5-yl)piperidin-1-yl)but-2-en-1-one], for which the half-inhibitory concentration (IC50) is less than 100 nM.

As for `C=CS(=O)(=O)N1CCCC(c2cc3cn[nH]c3c(-c3ccc(Oc4ccccc4)cc3)n2)C1` (centres unmarked) [Compound 5, 7-(4-phenoxyphenyl)-5-(1-(ethenylsulfonyl)piperidin-3-yl)-1H-pyrazolo[3,4-c]pyridine], the IC50 is less than 100 nM.

As for `C=CC(=O)N1CCC(c2cc3cn[nH]c3c(-c3ccc(Oc4ccccc4)cc3)n2)C1` (centres unmarked) [Compound 6, 1-(3-(7-(4-phenoxyphenyl)-1H-pyrazolo[3,4-c]pyridin-5-yl)pyrrolidin-1-yl)prop-2-en-1-one], the IC50 was less than 100 nM.

The compound `C=CC(=O)N1CCC(c2cc3cn[nH]c3c(-c3ccc(Oc4ccccc4)cc3)n2)CC1` [Compound 7, 1-(4-(7-(4-phenoxyphenyl)-1H-pyrazolo[3,4-c]pyridin-5-yl)piperidin-1-yl)prop-2-en-1-one] showed an IC50 of less than 100 nM.

With `C=CC(=O)Nc1cccc(-c2cc3cn[nH]c3c(-c3ccc(Oc4ccccc4)cc3)n2)c1` [Compound 8, N-(3-(7-(4-phenoxyphenyl)-1H-pyrazolo[3,4-c]pyridin-5-yl)phenyl)acrylamide], the IC50 was less than 100 nM.

Take `C=CC(=O)N1CCN(c2cc3cn[nH]c3c(-c3ccc(Oc4ccccc4)cc3)n2)CC1` [Compound 9, 1-(4-(7-(4-phenoxyphenyl)-1H-pyrazolo[3,4-c]pyridin-5-yl)piperazin-1-yl)prop-2-en-1-one]: the IC50 was less than 100 nM.

Compound `C=CC(=O)NC1CCN(c2cc3cn[nH]c3c(-c3ccc(Oc4ccccc4)cc3)n2)C1` (centres unmarked) [Compound 10, N-(1-(7-(4-phenoxyphenyl)-1H-pyrazolo[3,4-c]pyridin-5-yl)pyrrolidin-3-yl)acrylamide] registered an IC50 of less than 100 nM.

`C=CC(=O)N1CCC(Nc2cc3cn[nH]c3c(-c3ccc(Oc4ccccc4)cc3)n2)C1` (centres unmarked) [Compound 11, 1-(3-((7-(4-phenoxyphenyl)-1H-pyrazolo[3,4-c]pyridin-5-yl)amino)pyrrolidin-1-yl)prop-2-en-1-one] came in with an IC50 of less than 100 nM.

With `C=CC(=O)N1CCC(c2cc3cn[nH]c3c(-c3ccc(OC4CCCC4)cc3)n2)CC1` [Compound 12], the IC50 was less than 100 nM.

The compound `C=CC(=O)N1CCC(c2cc3cn[nH]c3c(-c3ccc(Oc4ccccn4)cc3)n2)CC1` [Compound 13, 1-(4-(7-(4-(pyridin-2-oxy)phenyl)-1H-pyrazolo[3,4-c]pyridin-5-yl)piperidin-1-yl)prop-2-en-1-one] yielded an IC50 of less than 100 nM.

Compound `C=CC(=O)N1CCC(c2cc3cn[nH]c3c(-c3ccc(Oc4ccccc4)cc3F)n2)CC1` [Compound 14, 1-(4-(7-(2-fluoro-4-phenoxyphenyl)-1H-pyrazolo[3,4-c]pyridin-5-yl)piperidin-1-yl)prop-2-en-1-one] yielded an IC50 of less than 100 nM.

`C=CC(=O)N1CCC(c2cc3cn[nH]c3c(-c3ccc(Oc4cccc(F)c4)cc3)n2)CC1` [Compound 15, 1-(4-(7-(4-(3-fluorophenoxyl)phenyl)-1H-pyrazolo[3,4-c]pyridin-5-yl)piperidin-1-yl)prop-2-en-1-one] yielded an IC50 of less than 100 nM.

Consider `C=CC(=O)N1CCC(c2cc3cn[nH]c3c(-c3ccc(CN4CCCC4)cc3)n2)CC1` [Compound 16, 1-(4-(7-(4-(pyrrolidin-1-ylmethyl)phenyl)-1H-pyrazolo[3,4-c]pyridin-5-yl)piperidin-1-yl)prop-2-en-1-one], for which the IC50 is greater than 500 nM.

Compound `CC#CC(=O)N1CCCC(c2cc3cn[nH]c3c(-c3ccc(Oc4ccccc4)cc3)n2)C1` (centres unmarked) [Compound 17, 1-(3-(7-(4-phenoxyphenyl)-1H-pyrazolo[3,4-c]pyridin-5-yl)piperidin-1-yl)but-2-yn-1-one] returned an IC50 of 100 to 500 nM.

The compound `C=CC(=O)N1CCC(c2cc3cn[nH]c3c(-c3ccc(C(=O)Nc4ccccn4)cc3)n2)C1` (centres unmarked) [Compound 18, 4-(5-(1-acryloylpyrrolidin-3-yl)-1H-pyrazolo[3,4-c]pyridin-7-yl)-N-(pyridin-2-yl) benzamide] came in with an IC50 of less than 100 nM.

As to `CC#CC(=O)N1CCC(c2cc3cn[nH]c3c(-c3ccc(C(=O)Nc4ccccn4)cc3)n2)C1` (centres unmarked) [Compound 19, 4-(5-(1-(but-2-ynoyl)pyrrolidin-3-yl)-1H-pyrazolo[3,4-c]pyridin-7-yl)-N-(pyridin-2-yl)benzamide], the IC50 lay in the range of 100 to 500 nM.

Consider `C=CC(=O)N1CCCC(c2cc(-c3ccc(Oc4ccccc4)cc3)c3[nH]ncc3c2)C1` (centres unmarked) [Compound 20, 1-(3-(7-(4-phenoxyphenyl)-1H-indazol-5-yl)piperidin-1-yl)prop-2-en-1-one], for which the IC50 was less than 100 nM.

Regarding `C=CC(=O)N1CCCC1c1cc2cn[nH]c2c(-c2ccc(Oc3ccccc3)cc2)n1` (centres unmarked) [Compound 21, 1-(2-(7-(4-phenoxyphenyl)-1H-pyrazolo[3,4-c]pyridin-5-yl)pyrrolidin-1-yl)prop-2-en-1-one], the IC50 is less than 100 nM.

`C=CC(=O)N1CC[C@H](c2cc3cn[nH]c3c(-c3ccc(Oc4ccccc4)cc3)n2)C1` [Compound 22a, (S)-1-(3-(7-(4-phenoxyphenyl)-1H-pyrazolo[3,4-c]pyridin-5-yl)pyrrolidin-1-yl)prop-2-en-1-one] gave an IC50 of less than 100 nM.

The compound `C=CC(=O)N1CC[C@@H](c2cc3cn[nH]c3c(-c3ccc(Oc4ccccc4)cc3)n2)C1` [Compound 22b, (R)-1-(3-(7-(4-phenoxyphenyl)-1H-pyrazolo[3,4-c]pyridin-5-yl)pyrrolidin-1-yl)prop-2-en-1-one] came in with an IC50 of less than 100 nM.

(Values after US10336755B2, “Fused pyrazole derivatives, preparation method thereof, and use thereof in treatment of cancers, inflammation and immune diseases” (Beijing InnoCare Pharma Tech Co., Ltd., priority 2016, dated 2019).)
